Measurements: US9433609B2, “Benzimidazole-imidazole derivatives” (Janssen Sciences Ireland UC, priority 2009, dated 2016)

Assays:
[1] = Counterscreen MT4-LTR-Luc; format: cell-based; conditions: human
From the text: Counterscreen cell lines included a Huh-7 hepatoma cell line containing a human cytomegalovirus major immediate-early promoter-Luc construct (Huh7-CMV-Luc) and an MT4 T-cell line containing a long terminal repeat-Luc reporter (MT4-LTR-Luc).

[2] = tested on: HCV genotype 1b replicon with NS5A R30H; assay: Transient HCV 1b replicon assay, NS5A mutant R30H; format: cell-based; conditions: Hepatitis C virus, read-out: EC50 R30H
From the text: In a transient set-up, a Huh-7 lunet hepatoma cell line was transiently transfected with an autonomously replicating RNA encoding a bi-cistronic expression construct. This construct comprises a firefly luciferase reporter gene preceding the NS3-NS5B subgenomic region of HCV (genotype 1a H77 or 1b Con1). Translation of the HCV subgenomic region is mediated by an internal ribosome entry site of encephalomyocarditis virus. The construct is furthermore flanked by 5′ and 3′ untranslated regions of HCV (genotype 1a H77 or 1b Con 1, respectively), which allow for replication of the RNA.
In addition to the wild-type constructs, site-directed mutations were introduced into the transient HCV genotype 1b replicon in the gene encoding for the non-structural protein 5A (NS5A). More precisely, amino acid residues 28, 30, 31 and 93 in NS5A were independently altered.
Cells were plated in 384 well plates in the presence of test and control compounds, which were added in various concentrations. Following an incubation of two days, replication of the HCV subgenomic replicon RNA was measured by assaying luciferase activity (using standard luciferase assay substrates and reagents and a Perkin Elmer ViewLux™ ultraHTS microplate imager). […] The inhibitory activity of the compound was monitored, enabling a dose-response curve for each test compound. […]

COC(=O)N[C@H](C(=O)N1CCC[C@H]1c1ncc(-c2ccc(-c3ccc4nc([C@@H]5CCCN5C(=O)[C@@H](NC(=O)OC)C(C)C)[nH]c4c3)cc2)[nH]1)C(C)C [Compound 1]
CC50 [1]: > 984 nM
EC50 [2]: 0.6 nM
